Data set [1] is described as follows: Biliary excretion in castrated pig assessed as unchanged drug level treated with finasteride at 0.8 mg/kg administered as intrajejunal dose measured during 6 hrs sampling by UPLC-tandem mass spectrometry. Format: ADME, organism-based, Sus scrofa, Bile. Details: dose 0.8 mg/kg. The settings on record: in vivo, other.
The nature of data set [2]: Biliary excretion in castrated pig assessed as unchanged drug level treated with finasteride at 0.8 mg/kg administered as intrajejunal dose 20 mins after ketoconazole administration measured during 6 hrs sampling by UPLC-tandem mass spectrometry. Format: ADME, organism-based, Sus scrofa, Bile. Details: dose 0.8 mg/kg. The settings on record: in vivo, other.
Data set [3] in a line: Biliary excretion in castrated pig assessed as unchanged drug level treated with finasteride at 0.2 mg/kg, iv measured during 6 hrs sampling by UPLC-tandem mass spectrometry. The class given is ADME, organism-based, Sus scrofa, Bile. Details: dose 0.2 mg/kg, route intravenous. The settings on record: in vivo.
The nature of data set [4]: Apparent biliary clearance in castrated pig treated with finasteride at 0.8 mg/kg administered as intrajejunal dose by UPLC-tandem mass spectrometry. The class given is ADME, organism-based, Sus scrofa, Bile. On the set-up: dose 0.8 mg/kg. The settings on record: in vivo.
Data set [5] is described as follows: Apparent biliary clearance in castrated pig treated with finasteride at 0.8 mg/kg administered as intrajejunal dose 20 mins after ketoconazole administration by UPLC-tandem mass spectrometry. Format: ADME, organism-based, Sus scrofa, Bile. On the set-up: dose 0.8 mg/kg. The settings on record: in vivo.
The nature of data set [6]: Apparent biliary clearance in castrated pig treated with finasteride at 0.2 mg/kg, iv by UPLC-tandem mass spectrometry. The settings on record: in vivo. Details: dose 0.2 mg/kg, route intravenous. Format: ADME, organism-based, Sus scrofa, Bile.
Data set [7] is described as follows: Drug excretion in castrated pig urine assessed as unchanged drug level treated with finasteride at 0.8 mg/kg administered as intrajejunal dose measured during 6 hrs sampling by UPLC-tandem mass spectrometry. Details: dose 0.8 mg/kg. The settings on record: in vivo, other. The class given is ADME, organism-based, Sus scrofa.
Data set [8] is described as follows: Drug excretion in castrated pig urine assessed as unchanged drug level treated with finasteride at 0.8 mg/kg administered as intrajejunal dose 20 mins after ketoconazole administration measured during 6 hrs sampling by UPLC-tandem mass spectrometry. Format: ADME, organism-based, Sus scrofa. On the set-up: dose 0.8 mg/kg. The settings on record: in vivo, other.

Data set [9] can be described thus: Drug excretion in castrated pig urine assessed as unchanged drug level treated with finasteride at 0.2 mg/kg, iv measured during 6 hrs sampling by UPLC-tandem mass spectrometry. Format: ADME, organism-based, Sus scrofa. On the set-up: dose 0.2 mg/kg, route intravenous. The settings on record: in vivo.
Data set [10] in a line: Cmax in castrated pig plasma withdrawn from portal vein at 10 mg/kg dosed via intrajejunal route by HPLC-UV. The settings on record: male.
The nature of data set [11]: Tmax in castrated pig plasma withdrawn from portal vein at 10 mg/kg dosed via intrajejunal route by HPLC-UV. The settings on record: male.
Data set [12] in a line: Cmax in castrated pig plasma withdrawn from femoral vein at 10 mg/kg dosed via intrajejunal route by HPLC-UV. The settings on record: male.
Data set [13] is described as follows: Tmax in castrated pig plasma withdrawn from femoral vein at 10 mg/kg dosed via intrajejunal route by HPLC-UV. The settings on record: male.
Data set [14] in a line: Half life in castrated pig plasma withdrawn from portal vein at 10 mg/kg dosed via intrajejunal route by HPLC-UV. The settings on record: male.
The nature of data set [15]: Half life in castrated pig plasma withdrawn from femoral vein at 10 mg/kg dosed via intrajejunal route by HPLC-UV. The settings on record: male.
A short description of data set [16]: AUC (0 to 6 hrs) in castrated pig plasma withdrawn from portal vein dosed via intrajejunal route by UPLC-tandem mass spectrometry. The settings on record: male.
A short description of data set [17]: AUC (0 to 6 hrs) in castrated pig plasma withdrawn from femoral vein dosed via intrajejunal route by UPLC-tandem mass spectrometry. The settings on record: male.

Broadly, the Cmax is the highest concentration seen after dosing. One may read the Tmax as the time at which the peak concentration occurs. Broadly, the half-life is the time needed for the level to fall by half in the phase considered. Low values mean fast loss, high ones slow loss. By AUC(0-t) is commonly meant the area under the concentration-time curve up to a stated or last time point. High values mean high exposure, low ones low exposure.

Turning to `CC(C)(NC(=O)[C@H]1CC[C@H]2[C@@H]3CC[C@H]4NC(=O)C=C[C@]4(C)[C@H]3CC[C@]12C)C(=O)O`, the Ae in [1] is 1.2 µmol; in [2] it was 0.7 µmol; in [3] it was 0.6 µmol; in data set [7], 8.5 µmol; in data set [8], 3.4 µmol; in [9], 1.2 µmol. In addition, the “CL(app)” value amounted to 2.4 mL/min/kg in data set [4], 1.2 mL/min/kg in [5] and 3.6 mL/min/kg in data set [6].
Turning to `CC(=O)N1CCN(c2ccc(OCC3COC(Cn4ccnc4)(c4ccc(Cl)cc4Cl)O3)cc2)CC1` (configuration not stated) [KETOCONAZOLE], the Cmax in [10] is 9 µM; in [12] it was 3 µM. The Tmax in [11] was 0.7 h; in data set [13], 1.8 h. Moreover, the half-life in data set [14] was 3.1 h; in data set [15], 4.1 h. Besides, the AUC(0-t) at 6 h is 22 µM·h in [16] and 13 µM·h in data set [17].

Source of the values: ChEMBL document CHEMBL3525971 (Drug Metab Dispos, 2011).
